{"source": "patent US11357782B2", "about": "“Treprostinil administration by inhalation” (priority 2006, dated 2022)", "key": {"[1]": {"test_system": "patients with pre-existing gas exchange problems", "experiment": "Ventilation-perfusion matching by multiple inert gas elimination technique (MIGET)", "experimental": "The impact of SMI-TRE on ventilation-perfusion matching was assessed in five patients (30 μg TRE, n=2; 45 μg TRE, n=1; 60 μg TRE, n=2) with pre-existing gas exchange problems by use of the multiple inert gas elimination technique (MIGET), see e.g. Wagner PD, Saltzman HA, West JB. Measurement of continuous distributions of ventilation-perfusion ratios: theory. J Appl Physiol. 1974; 36:588-99; Ghofrani HA, Wiedemann R, Rose F, Schermuly RT, Olschewski H, Weissmann N et al. Sildenafil for treatment of lung fibrosis and pulmonary hypertension: a randomised controlled trial. Lancet. 2002; 360:895-900, both incorporated herein in their entirety.\nThe inhalation of a highly concentrated aerosol can be in theory prone to disturbances of gas exchange because the deposition of even small amounts of aerosol may deliver high doses locally and thereby antagonize the hypoxic pulmonary vasoconstriction in poorly ventilated areas. This would then lead to increased shunt flow or increase of low ventilation/perfusion (V/Q) areas. This question was addressed in five patients with the multiple inert gas elimination technique (MIGET), the gold-standard for intrapulmonary V/Q ratio determination. The MIGET patients were selected for pre-existing gas exchange limitations. […] Etiologies were iPAH (n=1), CTEPH (n=3), pulmonary fibrosis (n=1)."}, "[2]": {"test_system": "patients with moderate to severe precapillary pulmonary hypertension", "experiment": "Study i) randomized crossover study of inhaled treprostinil vs inhaled iloprost, right heart catheter", "type": "in vivo, human", "settings": "for area under the curve (AUC) of PVR decrease: mean±95% confidence interval", "experimental": "All inhalations were performed with the […]® ultrasonic nebulizer ([…], Germany). Study i) was a randomized, open-label, single-blind crossover study. […] Patient characteristics and hemodynamic as well as gas exchange parameters are outlined in Table 3. Each patient inhaled both iloprost and treprostinil on the same day during right heart catheter investigation; the drugs were administered consecutively with a one hour interval between the drug applications. One half of the study patients initially inhaled treprostinil and then inhaled iloprost (n=22), while the other half initially inhaled iloprost and then inhaled treprostinil (n=22). Patients were randomized to one of the two groups and blinded as to the study drugs. Drug effects were monitored for 60 minutes after each inhalation."}, "[3]": {"test_system": "patients with severe pulmonary hypertension", "experiment": "Study iii) reduction of inhalation time at fixed 15 μg dose, pulsed ultrasonic nebulizer", "experimental": "Study iii) was a randomized, open-label, single blind study. The primary objective was to explore the shortest possible inhalation time for a 15 μg dose of inhaled treprostinil. A total of 48 patients inhaled one dose of TRE during right heart catheter investigation. The drug was applied in 18, 9, 3, 2 or 1 breaths. The aerosol was generated by a pulsed ultrasonic nebulizer (OPTINEB®, Nebutec, Elsenfeld, Germany) in cycles consisting of 2 seconds aerosol production (pulse) and 4 seconds pause. The device included an opto-acoustical trigger for the patient to synchronize the inspiration to the end of the aerosol pulse, thereby providing exact dosage. The TRE dose of 15 μg was either generated during 18 cycles (OPTINEB® filled with 100 μg/ml TRE, n=6), 9 cycles (200 μg/ml TRE, n=6), 3 cycles (600 μg/ml TRE, n=21), 2 cycles (1000m/m1 TRE, n=7) or 1 cycle (2000 μg/ml TRE, n=8). Hemodynamics and gas exchange were recorded for 120-180 minutes."}, "[4]": {"experiment": "Treprostinil plasma concentrations after single inhalation (study ii), LC-MS/MS", "settings": "for Cmax: human, plasma, inhaled", "experimental": "Treprostinil plasma concentrations were assessed in study ii) at 10, 15, 30, 60 and 120 minutes after inhalation. Treprostinil quantification was done by Alta Analytical Laboratory (El Dorado Hills, Calif., USA) with a validated liquid chromatography atmospheric-pressure ionization tandem mass spectrometry as previously described Wade M., et al. J. Clin. Pharmacol. 2004; 44:503-9. Mixed venous blood was drawn at the depicted time points (FIG. 11) after inhalation, centrifuged and the plasma frozen at −80° C. until temperature controlled shipping on dry ice."}, "[5]": {"experiment": "Aerosol quality by laser diffractometry (Respimat SMI)", "type": "physicochemical", "settings": "treprostinil-aerosol from Respimat SMI", "excerpt": "Placebo and treprostinil was applied with the Respimat® SMI. […] Eur. Respir."}, "[6]": {"test_system": "patients with severe pulmonary hypertension", "experiment": "Study ii) placebo controlled dose escalation study of inhaled treprostinil, hemodynamics and tolerability", "settings": "for maximal decrease of PVR to: 6 min inhalation", "protocol": "Study ii) was a randomized, open-label, single blind, placebo controlled study. […] A total number of 31 patients inhaled either placebo or treprostinil; each patient received one inhalation. […] Inhalation time was 6 minutes in all groups."}, "[7]": {"settings": "metacresol-containing TRE solution"}, "[8]": {"settings": "15 μg, 1 pulse, 2000 μg/ml, n=8"}, "[9]": {"settings": "15 μg, 2 pulses, 1000 μg/ml, n=7"}, "[10]": {"settings": "15 μg, 3 pulses, 600 μg/ml, n=21"}, "[11]": {"settings": "15 μg, 9 pulses, 200 μg/ml, n=6"}, "[12]": {"settings": "15 μg, 18 pulses, 100 μg/ml, n=6"}}, "note": "“Also recorded” adds a separate entry of the source."}
{"smiles": "CCCCC[C@H](O)CC[C@@H]1[C@H]2Cc3cccc(OCC(=O)[O-])c3C[C@H]2C[C@H]1O.[Na+]", "note": "[TRE]", "values": [{"measurement": "shunt flow", "setting": "[1]; 60 minutes after SMI-TRE, mean±95% confidence interval, n=5", "value": "8.3±3.4", "unit": "%"}, {"measurement": "low V/Q areas or shunt fraction", "setting": "[1]; after inhalation of SMI-TRE, n=5", "value": "No significant increase"}, {"measurement": "maximal relative reduction of SaO2", "setting": "[1]; five MIGET patients, compared to baseline values", "value": "−3.8±1.5", "unit": "%"}, {"measurement": "area under the curve (AUC) of PVR decrease", "setting": "[2]; 7.5 μg inhaled in 6 minutes, start of inhalation until 60 min", "value": "−12.6±7.0", "unit": "%"}, {"measurement": "area under the curve (AUC) of PVR decrease", "setting": "[2]; 15 μg inhaled in 6 minutes, until 60 min", "value": "−13.3±3.2", "unit": "%"}, {"measurement": "area under the curve (AUC) of PVR decrease", "setting": "[2]; 15 TRE inhaled in 3 minutes, until 60 min", "value": "−13.6±4.3", "unit": "%"}, {"measurement": "PVR values after 60 min", "setting": "[2]; 60 min after inhalation", "value": "had not yet returned to baseline"}, {"measurement": "gas exchange", "setting": "[2]; after inhalation", "value": "did not affect gas exchange"}, {"measurement": "systemic arterial pressure (SAP)", "setting": "[2]; after inhalation", "value": "unaffected"}, {"measurement": "side effects (transient flush, headache)", "setting": "[2]; iloprost 7.5 μg, treprostinil 7.5-15 μg", "value": "not observed"}, {"measurement": "maximum effect on PVR", "setting": "[2]; iloprost vs treprostinil, pooled", "value": "comparable"}, {"measurement": "taste", "setting": "[2]; [7]", "value": "Bad taste was reported by most of the patients"}, {"measurement": "time to maximum effect on PVR after inhalation", "setting": "[2]; pooled n=44, mean±SEM, p<0.0001", "value": "18 ± 2", "unit": "min"}, {"measurement": "reported side effects", "setting": "[3]; 15 μg, 48 patients, cough n=6, headache n=2, jaw pain n=1", "value": "mild transient cough; also recorded: mild headache; also recorded: mild jaw pain"}, {"measurement": "cardiac output", "setting": "[3]; 15 μg, all groups", "value": "moderately increased"}, {"measurement": "systemic arterial pressure", "setting": "[3]; 15 μg, all groups", "value": "not significantly affected"}, {"measurement": "PAP reduced to", "setting": "[3]; [8]", "value": "88±5.4", "unit": "%"}, {"measurement": "PVR reduced to", "setting": "[3]; [8]", "value": "80.3±5.2", "unit": "%"}, {"measurement": "PAP reduced to", "setting": "[3]; [9]", "value": "86±4", "unit": "%"}, {"measurement": "PVR reduced to", "setting": "[3]; [9]", "value": "77.4±4.5", "unit": "%"}, {"measurement": "PAP reduced to", "setting": "[3]; [10]", "value": "81.1±4.1", "unit": "%"}, {"measurement": "PVR reduced to", "setting": "[3]; [10]", "value": "71.2±6.0", "unit": "%"}, {"measurement": "PAP reduced to", "setting": "[3]; [11]", "value": "84.2±4.1", "unit": "%"}, {"measurement": "PVR reduced to", "setting": "[3]; [11]", "value": "72.9±4.9", "unit": "%"}, {"measurement": "PAP reduced to", "setting": "[3]; [12]", "value": "84.2±4.5", "unit": "%"}, {"measurement": "PVR reduced to", "setting": "[3]; [12]", "value": "76.3±5.6", "unit": "%"}, {"measurement": "concentration safely utilized without considerable side effects", "setting": "[3]; metacresol-free TRE solution, modified OPTINEB", "value": "≤ 2000", "unit": "µg/mL"}, {"measurement": "duration of pulmonary vasodilation", "setting": "[3]; single breath of 2000 μg/ml, 15 μg, compared to placebo inhalation", "value": "> 3", "unit": "h"}, {"measurement": "time of peak plasma concentrations after inhalation", "setting": "[4]; 30-120 μg, 6 min inhalation", "value": "10 to 15", "unit": "min"}, {"measurement": "Cmax", "setting": "[4]; 30 ug", "value": "0.00065 ± 0.00028", "unit": "µg/mL"}, {"measurement": "Cmax", "setting": "[4]; 60 ug", "value": "0.00159 ± 0.00017", "unit": "µg/mL"}, {"measurement": "Cmax", "setting": "[4]; 90 ug", "value": 0.00174, "unit": "µg/mL"}, {"measurement": "Cmax", "setting": "[4]; 120 ug", "value": "0.00351 ± 0.00104", "unit": "µg/mL"}, {"measurement": "aerosol particles mass median aerodynamic diameter", "setting": "[5]", "value": "4 to 5", "unit": "µm"}, {"measurement": "cardiac output increased to a maximum of", "setting": "[6]; 30 μg", "value": "106.8±3.2", "unit": "%"}, {"measurement": "side effects", "setting": "[6]; 30 μg TRE, n=1 each", "value": "flushing; also recorded: mild transient bronchoconstriction"}, {"measurement": "duration of hemodynamic changes", "setting": "[6]; 30 μg dose group, 3 hour observation period", "value": "had just returned to baseline within this period"}, {"measurement": "maximal decrease of PVR to", "setting": "[6]; 30 μg, n=8", "value": "76.5±4.7 % of baseline values"}, {"measurement": "cardiac output increased to a maximum of", "setting": "[6]; 60 μg", "value": "122.9±4.3", "unit": "%"}, {"measurement": "side effects", "setting": "[6]; 60 μg TRE, n=3", "value": "mild transient cough"}, {"measurement": "duration of pulmonary vasodilation", "setting": "[6]; 60 μg and 90 μg (and 120 μg) TRE doses, surpassing observation period", "value": "> 3", "unit": "h"}, {"measurement": "maximal decrease of PVR to", "setting": "[6]; 60 μg, n=6", "value": "73.7±5.8 % of baseline values"}, {"measurement": "cardiac output increased to a maximum of", "setting": "[6]; 90 μg", "value": "114.3±4.8", "unit": "%"}, {"measurement": "maximal decrease of PVR to", "setting": "[6]; 90 μg, n=6", "value": "73.3±4.3 % of baseline values"}, {"measurement": "cardiac output increased to a maximum of", "setting": "[6]; 120 μg TRE", "value": "111.3±3.9", "unit": "%"}, {"measurement": "arterial oxygen saturation", "setting": "[6]; 120 μg TRE, all 3 patients", "value": "significantly decreased"}, {"measurement": "side effects", "setting": "[6]; 120 μg TRE, n=1 each", "value": "moderate bronchoconstriction; also recorded: severe headache"}, {"measurement": "maximal decrease of PVR to", "setting": "[6]; 120 μg, n=3", "value": "65.4±4.1 % of baseline values"}, {"measurement": "gas exchange", "setting": "[6]; doses up to 90 μg TRE", "value": "not affected"}, {"measurement": "effects on systemic arterial pressure", "setting": "[6]; even at the highest doses", "value": "only minor effects"}, {"measurement": "taste of the aerosol", "setting": "[6]; [7]", "value": "bad taste of the TRE aerosol was reported by most patients"}, {"measurement": "tolerated inhaled dose", "setting": "[6]; single inhalation", "value": "up to 90 μg"}]}
